According to patent publication US10494380B2, “Nitrogen-containing tricyclic derivatives having HIV replication inhibitory activity” (priority 2015, dated 2019):
Like-named read-outs stand apart in the source and are kept apart here. Values belong to the compound of their own block, whether it stands above or below them.

Tests used:
Type in all cases: cell-based
HIV (HTLV-IIIB strain) = assay: HIV replication inhibition assay (Test Example 1; MT-4 cells, MTT); details: Human immunodeficiency virus 1, MT4, 96 h, HIV (HTLV-IIIB strain), MT-4 cells, MTT, four days; for EC50: read-out: EC50; for EC90: read-out: EC90
Experimental: HIV (HTLV-IIIB strain) persistent infected human T cell strain Molt-4 clone8 was cultured in RPMI-1640 medium supplemented with 10% fetal bovine serum and the supernatant was filtered, then the virus titer was measured and stored at −80° C. Each anti-human immunodeficiency virus active substance was diluted with the above culture medium to the designated concentration, which was dispensed into 96-well microtiter plate by 50 μL. Next, 100 μL of MT-4 cell suspension (2.5×10^4 cells) was dispensed into each well, then 50 μl of the above HIV-containing supernatant diluted with the above culture medium was added thereto (60 pfu (plaque forming unit)).
Cell mixture was cultured at 37° C. in CO2 incubator for four days, then 30 μL of MTT (3-(4,5-dimethylthiazole-2-yl)-2,5-diphenyltetrazolyum bromide) reagent (5 mg/mL in PBS) was added to all wells followed by incubation for 1 hour. In this step, MTT was reduced to insoluble formazan in living cells. To elute generated formazan 150 μL of the culture supernatant was removed from all wells, then 150 μL of cell lysis solution (10% Triton X-100 and 0.4% (v/v)-HCl containing isopropanol) was added thereto, followed by shaking with a plate mixer. The formazan was measured with micro plate reader at OD: 560 nm and 690 nm (reference wavelength) and the result was compared with the reference wells. EC50 and EC90 mean the compound concentration at which cytotoxicity caused by virus infection is inhibited 50% and 90%, respectively.

HIV = details: EC50 in the presence of human serum (25%) versus without human serum, MT-4 cells
Experimental: To confirm the influence of human serum on anti-HIV activity as necessary, human serum was added and determined EC50 in this condition. Human serum (100 μL/well) was dispensed into each anti-HIV active substance at a designated concentration dispensed 50 μL each in advance into a 96-well microtiter plate, and the plate was incubate at room temperature for 1 hour. To the serum-free plate, only culture medium (100 μL/well) was dispensed into 96-well microtiter plate. MT-4 cells (3×10^4 cells/well) was infected with 3 μL/well of HIV solution diluted to an appropriate concentration (600 pfu/50 μL) by the required number of wells and incubated at 37° C. for 1 hour. The infected cells were centrifuged at 1200 rpm for 5 minutes, the supernatant was discarded, and the infected cells were dispersed into culture medium for the required number of wells at 50 μL/well. Infected cell suspension was dispensed into a 96-well microtiter plate of which anti-HIV active substance and human serum prepared in advance. The cell mixture was mixed with a plate mixer and cultured in a CO2 incubator for 4 days. The EC50 in the presence of human serum was calculated in the same manner as in Test Example 1 and the ratio of EC50 in the presence of human serum and EC50 in the absence of human serum was calculated as the potency shift value. […]

[1] = system: T125A mutant virus (HIV-1 NL-432 recombinant molecular clone, IN gene); assay: HIV replication inhibition assay against integrase 124/125 mutant virus (Test Example 2)
Summary of the method: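 MT-4 cells (2.5×10^4 per well) infected with 60 pfu of 293T-derived HIV-1 NL-432 clone carrying integrase 124/125 point mutations, in presence of compound, cultured 4 days at 37 °C. Viability by MTT formazan at 560/690 nm; EC50 = concentration inhibiting 50% of virus-induced cytotoxicity.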

[2] = Human immunodeficiency virus 1, MT4, read-out: EC50 against T125A mutant virus, T125A mutant virus (HIV-1 NL-432 IN gene), MT-4 cells, MTT
[3] = T125A mutant virus (HIV-1 NL-432 IN gene), MT-4 cells, MTT, read-out: EC50 against T125A mutant virus

- EC50 (HIV (HTLV-IIIB strain)): 31 nM
- EC90 (HIV (HTLV-IIIB strain)): 46 nM
Structure (SMILES): Cc1ccc(-c2c([C@H](OC(C)(C)C)C(=O)O)c(C)c3c4c2cc(COCc2ccccc2)n4CCN3C)cc1 [Compound I-005]
- Potency shift value (HIV): 7.8

- EC50 (HIV (HTLV-IIIB strain)): 9.7 nM
- EC90 (HIV (HTLV-IIIB strain)): 15 nM
Structure (SMILES): CCCc1cc2c(-c3ccc(C)cc3)c([C@H](OC(C)(C)C)C(=O)O)c(C)c3c2n1CCN3C [Compound I-013]
- Potency shift value (HIV): 49

- EC50 (HIV (HTLV-IIIB strain)): 16 nM
- EC90 (HIV (HTLV-IIIB strain)): 24 nM
Structure (SMILES): COCc1cc2c(-c3ccc(C)cc3)c([C@H](OC(C)(C)C)C(=O)O)c(C)c3c2n1CCN3C [Compound I-011]
- Potency shift value (HIV): 21

Structure (SMILES): Cc1ccc(-c2c(C(OC(C)(C)C)C(=O)O)c(C#N)c3c4c2cc(C)n4CCN3C)cc1 (centres unmarked) [Compound I-186]
- EC50 [1, 2]: 20 nM
- Potency shift value (HIV): 15

Structure (SMILES): Cc1ccc(-c2c([C@H](OC(C)(C)C)C(=O)O)c(C)c3c4c2cc(C)n4CCN3c2ncc(Oc3nc4ccccc4o3)cn2)cc1 [Compound I-345]
- EC50 [1, 2]: 38 nM
- Potency shift value (HIV): 41

Structure (SMILES): Cc1ccc(-c2c([C@H](OC(C)(C)C)C(=O)O)c(C)c3c4c2cc(C)n4CCN3c2ncc(CCN(C)C)cn2)cc1 [Compound I-337]
- EC50 [1, 2]: 28 nM
- Potency shift value (HIV): 3.6

Structure (SMILES): Cc1ccc(-c2c([C@H](OC(C)(C)C)C(=O)O)c(C)c3c4c2cc(C)n4CCN3c2ncc(N3C[C@@H](C)O[C@@H](C)C3)cn2)cc1 [Compound I-316]
- EC50 [1, 2]: 6.6 nM
- Potency shift value (HIV): 17

Structure (SMILES): Cc1ccc(-c2c([C@H](OC(C)(C)C)C(=O)O)c(C)c3c4c2cc(C)n4CCN3c2ncc(CN3CCCC3)cn2)cc1 [Compound I-347]
- EC50 [1, 2]: 10 nM
- Potency shift value (HIV): 7.4

Structure (SMILES): COc1cnc(N2CCn3c(C)cc4c(-c5ccc(F)cc5)c([C@H](OC(C)(C)C)C(=O)O)c(C)c2c43)nc1 [Compound I-185]
- EC50 [1, 2]: 7.1 nM
- Potency shift value (HIV): 15

Structure (SMILES): Cc1c([C@H](OC(C)(C)C)C(=O)O)c(-c2ccc(Cl)cc2)c2cc(C)n3c2c1N(C)CC3c1ccccc1 (some centres unmarked) [Compound I-331]
- EC50 ([1]; read-out: EC50 against T125A mutant virus, T125A mutant virus (HIV-1 NL-432 IN gene), MT-4 cells, MTT): 92 nM
- Potency shift value (HIV): 7

Structure (SMILES): Cc1c([C@H](OC(C)(C)C)C(=O)O)c(-c2ccc(Cl)cc2)c2cc(C)n3c2c1OC(C)C3 (some centres unmarked) [Compound I-195]
- EC50 [1, 2]: 15 nM
- Potency shift value (HIV): 12

Structure (SMILES): COc1ccc(N2CCn3c(C)cc4c(-c5ccc(Cl)cc5)c([C@H](OC(C)(C)C)C(=O)O)c(C)c2c43)nc1 [Compound I-192]
- EC50 [1, 2]: 4.6 nM
- Potency shift value (HIV): 11

Structure (SMILES): Cc1ccc(-c2c([C@H](OC(C)(C)C)C(=O)O)c(C)c3c4c2cc(C)n4CCN3c2ncc(Oc3ccnc4ccccc34)cn2)cc1 [Compound I-340]
- EC50 [1, 2]: 15 nM
- Potency shift value (HIV): 18

Structure (SMILES): Cc1c([C@H](OC(C)(C)C)C(=O)O)c(-c2ccc(Cl)cc2)c2cc(C)n3c2c1N(c1ncc(COCCN(C)C)cn1)CC3 [Compound I-315]
- EC50 [1, 2]: 80 nM
- Potency shift value (HIV): 3.9

Structure (SMILES): Cc1ccc(-c2c([C@H](OC(C)(C)C)C(=O)O)c(C)c3c4c2cc(C)n4CCN3c2cccc(C(=O)N(C)C)n2)cc1 [Compound I-269]
- EC50 [1, 2]: 29 nM
- Potency shift value (HIV): 7.4

Structure (SMILES): COc1cnc(N2CCn3c(C)cc4c(-c5ccc(C)cc5)c([C@H](OC(C)(C)C)C(=O)O)c(C)c2c43)cn1 [Compound I-275]
- EC50 [1, 2]: 13 nM
- Potency shift value (HIV): 18

Structure (SMILES): Cc1ccc(-c2c([C@H](OC(C)(C)C)C(=O)O)c(Cl)c3c4c2cc(C)n4CCN3c2ncc(OCCN(C)C)cn2)cc1 [Compound I-350]
- EC50 [1, 2]: 22 nM
- Potency shift value (HIV): 4.3

Structure (SMILES): Cc1ccc(-c2c([C@H](OC(C)(C)C)C(=O)O)c(C)c3c4c2cc(C)n4CCN3c2ncc(CN3CCOCC3)cn2)cc1 [Compound I-348]
- EC50 [1, 2]: 5 nM
- Potency shift value (HIV): 21

- EC50 (HIV (HTLV-IIIB strain)): 9.5 nM
- EC90 (HIV (HTLV-IIIB strain)): 12 nM
Structure (SMILES): Cc1ccc(-c2c([C@H](OC(C)(C)C)C(=O)O)c(C)c3c4c2cc(C)n4CC(=O)N3C)cc1 [Compound I-020]
- Potency shift value (HIV): 41

Structure (SMILES): Cc1ccc(-c2c([C@H](OC(C)(C)C)C(=O)O)c(C)c3c4c2cc(C)n4CCN3c2cccc(CN3CCOCC3)n2)cc1 [Compound I-217]
- EC50 [1, 3]: 39 nM
- Potency shift value (HIV): 9.1

Structure (SMILES): Cc1c([C@H](OC(C)(C)C)C(=O)O)c(-c2ccc(Cl)cc2)c2cc(C)n3c2c1N(C1=NCCO1)CC3 [Compound I-180]
- EC50 [1, 2]: 13 nM
- Potency shift value (HIV): 7.8

Structure (SMILES): Cc1ccc(-c2c([C@H](OC(C)(C)C)C(=O)O)c(C)c3c4c2cc(C)n4CCN3c2nc(C)ns2)cc1 [Compound I-329]
- EC50 [1, 2]: 19 nM
- Potency shift value (HIV): 15

Structure (SMILES): Cc1ccc(-c2c([C@H](OC(C)(C)C)C(=O)O)c(C)c3c4c2cc(C)n4CCN3CCOCC(F)F)cc1 [Compound I-206]
- EC50 [1, 3]: 71 nM
- Potency shift value (HIV): 9.7

- EC50 (HIV (HTLV-IIIB strain)): 27 nM
- EC90 (HIV (HTLV-IIIB strain)): 40 nM
Structure (SMILES): Cc1ccc(-c2c([C@H](OC(C)(C)C)C(=O)O)c(C)c3c4c2cc(C)n4CCN3)cc1 [Compound I-015]
- Potency shift value (HIV): 11

Structure (SMILES): CCOCc1cnc(N2CCn3c(C)cc4c(-c5ccc(Cl)cc5)c([C@H](OC(C)(C)C)C(=O)O)c(C)c2c43)nc1 [Compound I-314]
- EC50 [1, 2]: 5.3 nM
- Potency shift value (HIV): 41

Structure (SMILES): Cc1c([C@H](OC(C)(C)C)C(=O)O)c(-c2ccc(Cl)cc2)c2cc(C)n3c2c1OCCC3 [Compound I-188]
- EC50 [1, 2]: 14 nM
- Potency shift value (HIV): 11

Structure (SMILES): Cc1c([C@H](OC(C)(C)C)C(=O)O)c(-c2ccc(Cl)cc2)c2cc(C)n3c2c1C=CC3 [Compound I-174]
- EC50 [1, 2]: 55 nM
- Potency shift value (HIV): 14

Structure (SMILES): Cc1c([C@H](OC(C)(C)C)C(=O)O)c(-c2cc3ccccc3s2)c2cc(C)n3c2c1N(CCN(C)C)CC3 [Compound I-319]
- EC50 [1, 2]: 87 nM
- Potency shift value (HIV): 3.4

Structure (SMILES): Cc1ccc(-c2c([C@H](OC(C)(C)C)C(=O)O)c(C)c3c4c2cc(C)n4CCN3c2ccc3ncccc3n2)cc1 [Compound I-289]
- EC50 [1, 2]: 35 nM
- Potency shift value (HIV): 15

Structure (SMILES): Cc1ccc(-c2c([C@H](OC(C)(C)C)C(=O)O)c(C)c3c4c2ccn4CCN3C)cc1 [Compound I-004]
- EC50 (HIV (HTLV-IIIB strain)): 4.1 nM
- EC90 (HIV (HTLV-IIIB strain)): 6 nM
- EC50 [1, 2]: 48 nM

Structure (SMILES): Cc1c([C@H](OC(C)(C)C)C(=O)O)c(-c2ccc(Cl)cc2)c2cc(C)n3c2c1N(c1ncc(OCCCO)cn1)CC3 [Compound I-256]
- EC50 [1, 2]: 5.6 nM
- Potency shift value (HIV): 10

Structure (SMILES): COc1cnc(N2c3c(C)c([C@H](OC(C)(C)C)C(=O)O)c(-c4ccc(C)cc4)c4cc(C)n(c34)C[C@H]2C)nc1 [Compound I-241]
- EC50 [1, 2]: 2.2 nM
- Potency shift value (HIV): 8.4

Structure (SMILES): C=Cc1cnc(N2CCn3c(C)cc4c(-c5ccc(Cl)cc5)c([C@H](OC(C)(C)C)C(=O)O)c(C)c2c43)nc1 [Compound I-299]
- EC50 [1, 2]: 5.1 nM
- Potency shift value (HIV): 20

Structure (SMILES): Cc1ccc(-c2c([C@H](OC(C)(C)C)C(=O)O)c(C)c3c4c2cc(C)n4CCN3c2ncc(CN3CCN(C)CC3)cn2)cc1 [Compound I-349]
- EC50 [1, 2]: 30 nM
- Potency shift value (HIV): 3.6

Structure (SMILES): Cc1ccc(-c2c([C@H](OC(C)(C)C)C(=O)O)c(C)c3c4c2cc(C)n4CCN3c2ccc(N3CCCC3=O)cn2)cc1 [Compound I-288]
- EC50 [1, 2]: 5.3 nM
- Potency shift value (HIV): 11

Structure (SMILES): Cc1ccc(-c2c([C@H](OC(C)(C)C)C(=O)O)c(C)c3c4c2cc(C)n4CCN3CCF)cc1 [Compound I-209]
- EC50 [1, 3]: 16 nM
- Potency shift value (HIV): 24

Structure (SMILES): Cc1ccc(-c2c([C@H](OC(C)(C)C)C(=O)O)c(C)c3c4c2c(Cl)c(C)n4CCN3C)cc1 [Compound I-002]
- EC50 (HIV (HTLV-IIIB strain)): 2.2 nM
- EC90 (HIV (HTLV-IIIB strain)): 3.5 nM
- EC50 [1, 2]: 21 nM

Structure (SMILES): Cc1cc(F)c(-c2c([C@H](OC(C)(C)C)C(=O)O)c(C)c3c4c2cc(C)n4CCN3CCN(C)C)c(F)c1 [Compound I-248]
- EC50 [1, 2]: 67 nM
- Potency shift value (HIV): 1.5
